Source: patent US8609655B2, “Calcimimetic compound for use in the treatment of epithelial injury” (Amgen Inc., priority 2008, dated 2013)

What was measured:
[1] = tested on: ileal villi; assay: Ischemic injury and Trypan Blue exclusion in ileal villi; assay type: cell-based, rat; details: 5 min of 100 nM compound A; 30 min 100% N2; without calcimimetic greater than 60% uptake
Method: Individual villi were transferred to the stage of an inverted microscope where they were perfused with 37° C. HEPES Ringer solution that was bubbled with 100% O2. After the 5 minute equilibration period villi were exposed to a HEPES Ringer solution that had been bubbled with 100% N2. In one series Trypan Blue a non membrane permeant dye used for assessment of membrane integrity was added to the bath (0.1 mM Trypan Blue concentration dissolved directly into the bath solution, either 100% O2 or 100% N2). Images were then recorded at sequential time points using DIC optics at 60× Magnification using a Cooled CCD camera and Metafluor Image acquisition and analysis software. Final data was acquired at 30 min from start of perfusion for all groups. The number of Trypan blue positive cells were counted and a number recorded for each villi under each condition. After 30 minutes of exposure to each experimental solution the number of Trypan Blue positive cells was recorded from a blinded observer. The final number of positive cells for each villi was recorded. The data for each villi with a minimum of 7 cells per villi were then pooled and recorded. A numeric mean was then given for the summation of all the cellular data from each villi and from each animal. For the studies presented there were 7 cells per villi, 5 villi per animal and 5 animals in each group. […]

[2] = tested on: isolated ileal villi; assay: Ischemic injury (100% N2) and intracellular calcium (FLUO-4) in isolated ileal villi; assay type: cell-based; details: 5 min exposure to 100 nM compound A; rat ileal villi; without calcimimetic sustained increase greater than 200% of initial value
Method: Male (Casr^+/+;Gcm2^−/−) or CaSR knockout (Casr^−/−;Gcm2^−/−) mice weighing 22-27 grams (upper panel) or male Sprague-Dawley rats weighing 220-275 grams (lower panel) were allowed free access to water and food prior to experimentation. The animals were exposed to an overdose of isofluorane and the ileum was removed. The ileum was then cut into 4 cm long sections and each section was placed in EDTA (20 mM) to isolate individual villi for 20 minutes at 37° C. After this digestion period the villi were placed in a HEPES-Ringer Solution that was bubbled with 100% O2 and were kept in this solution at 4° C. until use. All mice were generated at Yale University from a breeding colony. Male Sprague-Dawley rats were purchased from Charles River Laboratories Inc. (Wilmington, Mass.). […]
Following isolation individual villi were placed on coverslips and loaded with the calcium indicator dye FLUO4-AM (10 μM) (Invitrogen, Oregon USA) for 15 minutes. […] Images were recorded for 20-30 minutes using DIC optics at 60× Magnification with a Cooled CCD camera and Metamorph Image acquisition and analysis software.
The increase in intracellular Ca^2+ is plotted as arbitrary fluorescent units (AFU) with higher numbers of AFU representing an increase in intracellular Ca^2+. The data for each villi with a minimum of 7 cells per villi were then pooled and recorded. […]

[3] = tested on: colonic crypts; assay: Ischemic injury (100% N2) and intracellular calcium in colonic crypts; assay type: cell-based; details: 5 min prepulse with 100 nM compound A; rat colonic crypts
[4] = Plasma level of calcimimetic in cutaneous wound study; assay type: in vivo, mouse; details: Compound B 3 mg/kg daily, female balb/c mice, over the course of the study
[5] = tested on: wound injury RNA biomarkers (wound tissue); assay: Wound injury RNA biomarkers by quantitative PCR in full-thickness cutaneous wound injury model; assay type: in vivo, mouse; details: 3 mg/kg, drug over vehicle, n=5
Method: See Zoog S J et al. Cytometry A. (2009) March; 75(3): 189-98. The impact of calcimimetic treatment on gene mRNA biomarkers was assessed by quantitative PCR. For wound injury RNA biomarker exploration, female balb/c mice were randomly divided and treated with Compound B (3 mg/kg, n=5) or vehicle (20% Captisol in water, n=5) the day before cutaneous wounding and each subsequent day after until the termination of the studies. All mice received a 3 mm diameter full-thickness punch wound on day zero. On day 1 and day 3 post-injury, a 6 mm diameter skin biopsy was made over the original 3 mm wound and the wound tissue collected for RNA analysis. RNA was isolated using the Trizol reagent (Invitrogen) following manufacturer's instruction. 10 ng of total RNA was added to a single well at the final volume of 10 ul in 1×ABI (Applied Biosystems) Taqman qRT-PCR mixture and run on an ABI 7900 HT Real Time PCR system. For data analysis, the gene expression profile of each sample was first determined based on a control gene, Hprt1, using ABI SDS2.1 software. The signal of each sample was normalized further with Actb, Gapdh, Hprt1, and Rpl27. The biomarkers of wound injury, inflammation and repair that were dynamically affected by Compound B on day 1 and day 3 compared to vehicle control are shown in Table 2. Calcimimetic Compound B affected inflammatory genes, and genes involved in remodeling and repair. Specifically, key inflammatory cytokines such as IL-1a and TNF that may promote cell death were affected by Compound B. Genes involved in inflammation and repair that were affected included: tryptase, TIMP-3, and MMP13. Genes involved in promoting cell survival included: VEGFa, TGFb1, eNOS, and PDGFRb. Immune cell related genes included: M-CSF, TLR-7 and CD3. Other relevant genes included: ITGA3 and PRG-1. […] Table 2 represents the fold increase of drug-induced quantitative change in the gene over vehicle as determined by PCR analysis (n=5 in each drug or vehicle treated cohort).

[6] = tested on: serum total calcium; assay: Serum total calcium in cutaneous wound study; assay type: in vivo, mouse; details: Compound B 3 mg/kg daily, female balb/c mice; vehicle 10.2-10.9 mg/dL

COc1cccc([C@@H](C)NCCCc2ccccc2Cl)c1 [Compound A, 3-(2-chlorophenyl)-N-((1R)-1-(3-(methyloxy)phenyl)ethyl)-1-propanamine]
cellular uptake of Trypan Blue [1]: prevented uptake of Trypan Blue
change in intracellular calcium following exposure to 100% N2 [2]: no increase in calcium
change in intracellular calcium following exposure to 100% N2 [3]: no increase in calcium

COc1ccc(CNC(C)c2ccccc2)cc1-c1ccc(C(F)(F)F)cc1 (centres unmarked) [Compound B, N-((6-(methyloxy)-4′-(trifluoromethyl)-1,1′-biphenyl-3-yl)methyl)-1-phenylethanamine]
average plasma level [4]: 20 to 36 ng/mL
Fold Increase (C/V) CD3 RNA ([5]; Day 1 post-injury): 2.90 fold
Fold Increase (C/V) IL-1a RNA ([5]; Day 1 post-injury): 1.78 fold
Fold Increase (C/V) ITGA3 RNA ([5]; Day 1 post-injury): 4.89 fold
Fold Increase (C/V) M-CSF RNA ([5]; Day 1 post-injury): 2.13 fold
Fold Increase (C/V) MMP13 RNA ([5]; Day 1 post-injury): 2.78 fold
Fold Increase (C/V) PDGFRb(CD140) RNA ([5]; Day 1 post-injury): 0.67 fold
Fold Increase (C/V) PRG-1 RNA ([5]; Day 1 post-injury): 3.03 fold
Fold Increase (C/V) TGFB1 RNA ([5]; Day 1 post-injury): 4.17 fold
Fold Increase (C/V) TIMP-3 RNA ([5]; Day 1 post-injury): 4.48 fold
Fold Increase (C/V) TLR-7 RNA ([5]; Day 1 post-injury): 2.20 fold
Fold Increase (C/V) TNFR(p75) RNA ([5]; Day 1 post-injury): 1.62 fold
Fold Increase (C/V) TNFalpha RNA ([5]; Day 1 post-injury): 1.26 fold
Fold Increase (C/V) Tryptase b2 (MCP-6) RNA ([5]; Day 1 post-injury): 1.02 fold
Fold Increase (C/V) VEGFa RNA ([5]; Day 1 post-injury): 1.53 fold
Fold Increase (C/V) eNOS RNA ([5]; Day 1 post-injury): 5.41 fold
Fold Increase (C/V) CD3 RNA ([5]; Day 3 post-injury): 0.88 fold
Fold Increase (C/V) IL-1a RNA ([5]; Day 3 post-injury): 3.44 fold
Fold Increase (C/V) ITGA3 RNA ([5]; Day 3 post-injury): 1.78 fold
Fold Increase (C/V) M-CSF RNA ([5]; Day 3 post-injury): 2.13 fold
Fold Increase (C/V) MMP13 RNA ([5]; Day 3 post-injury): 1.90 fold
Fold Increase (C/V) PDGFRb(CD140) RNA ([5]; Day 3 post-injury): 1.42 fold
Fold Increase (C/V) PRG-1 RNA ([5]; Day 3 post-injury): 4.12 fold
Fold Increase (C/V) TGFB1 RNA ([5]; Day 3 post-injury): 0.92 fold
Fold Increase (C/V) TIMP-3 RNA ([5]; Day 3 post-injury): 1.62 fold
Fold Increase (C/V) TLR-7 RNA ([5]; Day 3 post-injury): 2.39 fold
Fold Increase (C/V) TNFR(p75) RNA ([5]; Day 3 post-injury): 1.62 fold
Fold Increase (C/V) TNFalpha RNA ([5]; Day 3 post-injury): 3.83 fold
Fold Increase (C/V) Tryptase b2 (MCP-6) RNA ([5]; Day 3 post-injury): 0.95 fold
Fold Increase (C/V) VEGFa RNA ([5]; Day 3 post-injury): 0.61 fold
Fold Increase (C/V) eNOS RNA ([5]; Day 3 post-injury): 0.46 fold
serum total calcium level [6]: 7.21 to 7.9 mg/dL
